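Briefly, cells in 96-well plates were exposed to five compound concentrations for 48 h, and endpoints were estimated by linear interpolation. Abbreviation: GI50, concentration required for 50% inhibition of growth.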 The source made the active and inactive calls. No stated cut-off is given here; in the data, active = GI50 up to about 1.1 µM and inactive = higher.
Experiments:
Test in all cases: inhibition of tumour cell growth, NCI panel, 48 h
DLD-1 = test system: DLD-1
DMS-114 = test system: DMS-114
KM-20L2 = test system: KM-20L2
LXFL 529 = test system: LXFL 529
M19-MEL = test system: M19-MEL
SNB-78 = test system: SNB-78
XF498 = test system: XF498
HOP-18 = test system: HOP-18
RXF 631 = test system: RXF 631

COc1ccc2ccccc2c1CN1CCOCCOCCN(Cc2c(OC)ccc3ccccc23)CCOCCOCC1
GI50 (DLD-1): > 100 µM (inactive)
GI50 (DMS-114): 9.95 µM (inactive)
GI50 (KM-20L2): > 23 µM (inactive)
GI50 (LXFL 529): > 89.9 µM (inactive)
GI50 (M19-MEL): > 81.8 µM (inactive)
GI50 (SNB-78): > 68.4 µM (inactive)
GI50 (XF498): > 41.5 µM (inactive)

COC1=NCc2ccccc2-c2ccccc21
GI50 (DLD-1): > 100 µM (inactive)
GI50 (DMS-114): > 100 µM (inactive)
GI50 (HOP-18): 75.9 µM (inactive)
GI50 (LXFL 529): > 10 µM (inactive)
GI50 (SNB-78): > 100 µM (inactive)
GI50 (XF498): > 100 µM (inactive)

COc1cccc2c1C(=O)c1c(O)c3c(c(O)c1C2=O)CC(O)(C(O)CO)CC3OC1CC(N2CCOCC2)C(O)C(C)O1 (configuration not stated)
GI50 (DLD-1): < 0.001 µM (active)
GI50 (DMS-114): 0.018 µM (active)
GI50 (HOP-18): < 0.001 µM (active)
GI50 (KM-20L2): 0.0267 µM (active)
GI50 (LXFL 529): 0.0124 µM (active)
GI50 (M19-MEL): 0.0146 µM (active)
GI50 (RXF 631): < 0.001 µM (active)
GI50 (SNB-78): 0.0106 µM (active)
GI50 (XF498): 0.0168 µM (active)

CN(C)NC(=O)NC12CC3CC(CC(C3)C1)C2
GI50 (KM-20L2): > 100 µM (inactive)
GI50 (LXFL 529): > 100 µM (inactive)
GI50 (M19-MEL): > 100 µM (inactive)
GI50 (SNB-78): > 100 µM (inactive)
GI50 (XF498): > 100 µM (inactive)

COC(=O)c1nn(C(=N)c2ccc(Cl)cc2)c2c1CCCCC2
GI50 (DLD-1): > 100 µM (inactive)
GI50 (DMS-114): > 100 µM (inactive)
GI50 (KM-20L2): > 100 µM (inactive)
GI50 (LXFL 529): > 100 µM (inactive)
GI50 (M19-MEL): > 100 µM (inactive)
GI50 (SNB-78): > 100 µM (inactive)

O=C(/C=C/c1ccc([N+](=O)[O-])cc1)c1ccc(NCc2nc3ccccc3[nH]2)cc1
GI50 (DLD-1): 3.97 µM (inactive)
GI50 (DMS-114): 1.91 µM (inactive)
GI50 (HOP-18): 16.4 µM (inactive)
GI50 (KM-20L2): 3.98 µM (inactive)
GI50 (LXFL 529): 2.9 µM (inactive)
GI50 (M19-MEL): 3.94 µM (inactive)
GI50 (RXF 631): 3.49 µM (inactive)
GI50 (SNB-78): 5.81 µM (inactive)
GI50 (XF498): 6.17 µM (inactive)

Oc1ccc2ccccc2c1/N=N/c1ccsc1
GI50 (DLD-1): > 100 µM (inactive)
GI50 (DMS-114): > 100 µM (inactive)
GI50 (HOP-18): > 100 µM (inactive)
GI50 (KM-20L2): > 100 µM (inactive)
GI50 (LXFL 529): > 100 µM (inactive)
GI50 (M19-MEL): > 100 µM (inactive)
GI50 (RXF 631): 45.5 µM (inactive)
GI50 (SNB-78): > 100 µM (inactive)

Cc1c(/C=N/N(C)C)oc2c1cc(O)c1ncccc12
GI50 (DLD-1): 3.67 µM (inactive)
GI50 (DMS-114): 2.87 µM (inactive)
GI50 (HOP-18): 1.77 µM (inactive)
GI50 (KM-20L2): 34.5 µM (inactive)
GI50 (LXFL 529): 7.98 µM (inactive)
GI50 (XF498): 8.38 µM (inactive)

CC(C)N(C(=O)C12C3C4C5(C(=O)O)C(C1C35I)C42C(=O)O)C(C)C (configuration not stated)
GI50 (DLD-1): > 100 µM (inactive)
GI50 (DMS-114): > 100 µM (inactive)
GI50 (KM-20L2): > 100 µM (inactive)
GI50 (LXFL 529): > 100 µM (inactive)
GI50 (M19-MEL): > 100 µM (inactive)
GI50 (RXF 631): > 100 µM (inactive)
GI50 (SNB-78): > 100 µM (inactive)

N=C(Nc1nc(-c2ccccn2)cc2ccccc12)c1ccccn1
GI50 (DLD-1): 0.0019 µM (active)
GI50 (DMS-114): 0.00108 µM (active)
GI50 (HOP-18): 0.301 µM (active)
GI50 (LXFL 529): 0.00242 µM (active)
GI50 (M19-MEL): 0.232 µM (active)
GI50 (RXF 631): 0.01 µM (active)
GI50 (SNB-78): 3.33 µM (inactive)
GI50 (XF498): 0.00407 µM (active)

COc1ccc2c(c1)[n+]([O-])c(/C(C)=N/NC(=O)CC#N)c[n+]2[O-]
GI50 (DLD-1): 74.6 µM (inactive)
GI50 (DMS-114): > 100 µM (inactive)
GI50 (HOP-18): > 100 µM (inactive)
GI50 (KM-20L2): > 100 µM (inactive)
GI50 (LXFL 529): > 100 µM (inactive)
GI50 (M19-MEL): > 100 µM (inactive)
GI50 (RXF 631): > 100 µM (inactive)
GI50 (SNB-78): > 100 µM (inactive)
GI50 (XF498): > 100 µM (inactive)

O=C(n1c2ccccc2c2nnc(S)nc21)C(F)(F)F
GI50 (DLD-1): > 100 µM (inactive)
GI50 (DMS-114): > 100 µM (inactive)
GI50 (LXFL 529): > 100 µM (inactive)
GI50 (M19-MEL): > 100 µM (inactive)
GI50 (SNB-78): > 100 µM (inactive)
GI50 (XF498): > 100 µM (inactive)

O=C1/C(=C/c2ccccc2)CN(C(=O)CCN2CCCC2)C/C1=C\c1ccccc1
GI50 (DLD-1): 1.46 µM (inactive)
GI50 (DMS-114): 2.07 µM (inactive)
GI50 (HOP-18): 3.35 µM (inactive)
GI50 (KM-20L2): 1.62 µM (inactive)
GI50 (LXFL 529): 1.72 µM (inactive)
GI50 (M19-MEL): 1.84 µM (inactive)
GI50 (RXF 631): 4.08 µM (inactive)
GI50 (SNB-78): 3.8 µM (inactive)
GI50 (XF498): 5.09 µM (inactive)

CC1(C2CCC3(C)OC3C2)CO1 (configuration not stated)
GI50 (DLD-1): > 100 µM (inactive)
GI50 (DMS-114): > 100 µM (inactive)
GI50 (HOP-18): > 100 µM (inactive)
GI50 (KM-20L2): > 100 µM (inactive)
GI50 (LXFL 529): > 100 µM (inactive)
GI50 (M19-MEL): > 100 µM (inactive)
GI50 (RXF 631): > 100 µM (inactive)
GI50 (SNB-78): > 100 µM (inactive)
GI50 (XF498): > 100 µM (inactive)

CCOP(=S)(OCC)Oc1ccc2c(c1)OC(=O)C1(Cl)C2(C)C2(Cl)C(=O)Oc3cc(OP(=S)(OCC)OCC)ccc3C12C (configuration not stated)
GI50 (DLD-1): 16.8 µM (inactive)
GI50 (DMS-114): 14.6 µM (inactive)
GI50 (KM-20L2): 17.1 µM (inactive)
GI50 (LXFL 529): 8.67 µM (inactive)
GI50 (M19-MEL): 18 µM (inactive)
GI50 (SNB-78): 19.4 µM (inactive)
GI50 (XF498): 19.2 µM (inactive)

COC(=O)C1=C(c2cc(OC)c(OC)c(OC)c2)OC(c2ccc(OC)c(OC)c2)C1 (configuration not stated)
GI50 (DLD-1): 36.5 µM (inactive)
GI50 (DMS-114): 28.4 µM (inactive)
GI50 (HOP-18): 92.3 µM (inactive)
GI50 (KM-20L2): 44.9 µM (inactive)
GI50 (LXFL 529): 26.5 µM (inactive)
GI50 (M19-MEL): 43.3 µM (inactive)
GI50 (XF498): 68.4 µM (inactive)

Cc1ccc(-n2c3nc(=O)n(C)c(=O)c-3nc3ccccc32)c(C)c1
GI50 (DLD-1): 15 µM (inactive)
GI50 (HOP-18): 6.62 µM (inactive)
GI50 (KM-20L2): 4.92 µM (inactive)
GI50 (LXFL 529): 11.3 µM (inactive)
GI50 (M19-MEL): 1.63 µM (inactive)
GI50 (RXF 631): 7.05 µM (inactive)
GI50 (SNB-78): 21.5 µM (inactive)
GI50 (XF498): 13.1 µM (inactive)

COc1cc2c(cc1OC)C1Cc3ccc(OC)c(OC)c3C[N+]1([O-])CC2 (configuration not stated)
GI50 (DLD-1): > 100 µM (inactive)
GI50 (KM-20L2): > 100 µM (inactive)
GI50 (LXFL 529): > 100 µM (inactive)
GI50 (SNB-78): > 100 µM (inactive)
GI50 (XF498): > 100 µM (inactive)

CCC(=S)N(C)O
GI50 (DLD-1): 24.6 µM (inactive)
GI50 (DMS-114): 2.22 µM (inactive)
GI50 (KM-20L2): 21.7 µM (inactive)
GI50 (LXFL 529): 0.499 µM (active)
GI50 (M19-MEL): 9.77 µM (inactive)
GI50 (SNB-78): 55.6 µM (inactive)
GI50 (XF498): 1.01 µM (active)

CC12C(=CC(=O)CC1SCCS(=O)(=O)O)C(C#N)=C(N)N2c1ccc(Cl)c(Cl)c1 (configuration not stated)
GI50 (DLD-1): > 100 µM (inactive)
GI50 (DMS-114): > 100 µM (inactive)
GI50 (KM-20L2): > 100 µM (inactive)
GI50 (LXFL 529): > 100 µM (inactive)
GI50 (M19-MEL): > 100 µM (inactive)
GI50 (SNB-78): > 100 µM (inactive)

CN(C)C(=S)/N=c1\ss/c(=N\S(=O)(=O)c2ccccc2)n1N(C)C
GI50 (DLD-1): > 100 µM (inactive)
GI50 (DMS-114): 12.9 µM (inactive)
GI50 (HOP-18): > 100 µM (inactive)
GI50 (KM-20L2): > 100 µM (inactive)
GI50 (LXFL 529): > 100 µM (inactive)
GI50 (M19-MEL): 55.5 µM (inactive)
GI50 (RXF 631): > 100 µM (inactive)
GI50 (SNB-78): > 100 µM (inactive)

From ChEMBL document CHEMBL1201862, “PubChem BioAssay data set” (2004)
